Where two headings read alike, the source gives them in different places.
How the values were obtained:
A431 cells = test system: A431 cells
Method: (§1) The experimental procedures were as follows: The cells were subcultured in a complete medium containing 10% FBS in an incubator at 37 °C with 5% CO2 and saturated humidity. The cell density was adjusted to (3-5) × 10^4 cells/mL using a complete medium containing 10% FBS. The cell suspension was added to the wells of a 96-well culture plate at 100 µL/well, and the plate was incubated in an incubator at 37 °C with 5% CO2 and saturated humidity overnight (for about 16-24 hrs). Various dose groups of the test substance and a solvent control group were set. On the next day, the original culture medium was discarded. Subsequently, 20% FBS-containing complete medium was added at 100 µL/well, and the test substance or solvent in FBS-free medium was then added at 100 µL/well, resulting in a final FBS concentration of 10%. Meanwhile, a negative control group was set: each well received 100 µL of 20% FBS-containing complete medium + 100 µL of incomplete medium containing cells, resulting in a final FBS concentration of 10%. A zero adjustment group (background) was also set: 200 µL of the culture medium alone (100 µL of 20% FBS-containing complete medium + 100 µL of incomplete medium), without drugs and cells. For each concentration group, four replicate wells were set.
(§2) After incubation for 48 hrs under the experimental conditions, the supernatant was discarded, and 110 µL of CCK-8 working solution (100 µL of 10% FBS-containing complete medium and 10 µL of CCK-8 solution) were added to each well. The cells were further incubated for 4 hrs, and the optical density value at a wavelength of 450 nm (A450) was then measured for each well using a microplate reader. The average value for the wells of each treatment group (T) was compared with the average value for the negative control wells (C). The percent inhibition rate of each concentration group was calculated using the following formula: [Inhibition rate = (1 - T/C) × 100%], and the half-maximal inhibitory concentration (IC50) was calculated.

COLO-16 cells [1] = test system: COLO-16 cells
Method: as §1, §2

SCL-1 cells [2] = test system: SCL-1 cells
Method: as §1, §2

[3] = test system: TE.354.T cells (human cutaneous basal cell carcinoma)
Method: The experimental procedures were as follows: The cells were subcultured in a complete medium containing 10% FBS in an incubator at 37 °C with 5% CO2 and saturated humidity. The cell density was adjusted to (3-5) × 10^4 cells/mL using a complete medium containing 10% FBS. The cell suspension was added to the wells of a 96-well culture plate at 100 µL/well, and the plate was incubated in an incubator at 37 °C with 5% CO2 and saturated humidity overnight (for about 16-24 hrs). Various dose groups of the test substance and a solvent control group were set. On the next day, the original culture medium was discarded. Subsequently, 20% FBS-containing complete medium was added at 100 µL/well, and the test substance or solvent in FBS-free medium was then added at 100 µL/well, resulting in a final FBS concentration of 10%. Meanwhile, a negative control group was set: each well received 100 µL of 20% FBS-containing complete medium + 100 µL of incomplete medium containing cells, resulting in a final FBS concentration of 10%. A zero adjustment group (background) was also set: 200 µL of the culture medium alone (100 µL of 20% FBS-containing complete medium + 100 µL of incomplete medium), without drugs and cells. For each concentration group, four replicate wells were set. […]

SCL-1 cells [4] = settings: SCL-1 tumor-bearing nude mice, 21 days
Method: (§3) Quarantine-qualified male BALB/c-nu nude mice weighing 13.4-20.5 g were each inoculated with 0.2 mL of SCL-1 cells in logarithmic growth phase at 3 x 10^6 cells/mL (with Matrigel and cell suspension mixed in a ratio of 1:2) in the right axilla. […] The drug was kept in contact with the skin for 4 hrs per administration, and the treatment was given to each group for three consecutive weeks. During the treatment period, the long diameter (a) and short diameter (b) of the tumors were measured using a vernier caliper every 3 days. Then, the tumor volume (TV), relative tumor volume (RTV), and relative tumor proliferation rate (T/C, %) were calculated. After the final administration, the tumor tissues were dissected out and weighed to calculate the tumor growth inhibition rates.

COLO-16 cells [5] = settings: COLO-16 tumor-bearing nude mice, 21 days
Method: as §3, with “weighing 13.7-21.1” for “weighing 13.4-20.5”, “of COLO-16” for “of SCL-1”, “at 6.7” for “at 3”, “cells/mL” for “cells/mL (with Matrigel and cell suspension mixed in a ratio of 1:2)”

[6] = 20 °C
[7] = for Labeled amount (%) / Related substances (%) Impurity A / Related substances (%) Impurity B / Related substances (%) Impurity C / Related substances (%) Impurity D / Related substances (%) Impurity E / Related substances (%) Impurity F / Related substances (%) RRT0.73 / Related substances (%) RRT1.10 / Related substances (%) RRT2.18 / Related substances (%) Total impurities: mixed with CMC-Na 1:5
[8] = topical gel; for plasma drug concentrations above the LLOQ: 0.008-0.06 mg/cm^2, LLOQ 0.02 ng/mL
[9] = test system: human liver cancer HepG2 cells; settings: documented in CN 104736157 A; cited from earlier work
[10] = High humidity for 10 days (RH 90%±5%)
[11] = High temperature for 10 days (60 °C±2 °C)

In the case of `CO[C@H]1[C@H](O)[C@H](O[C@H]2CC[C@@]3(C)[C@H](CC[C@@H]4[C@@H]3CC[C@]3(C)[C@@H](C5=CC(=O)OC5)CC[C@]43O)C2)O[C@@H](C)[C@@H]1O` [17β-neriifolin], the growth inhibitory effects (A431 cells) is reported as “strong growth inhibitory effects”, the growth inhibitory effects (COLO-16 cells [1]) is reported as “strong growth inhibitory effects” and the growth inhibitory effects (SCL-1 cells [2]) is reported as “strong growth inhibitory effects”. The growth inhibitory effects [3] was “strong growth inhibitory effects”, the “anti-tumor effect compared with Imiquimod cream (50 mg/g)” value (SCL-1 cells [4]) was “significantly superior to that of Imiquimod cream” and the “anti-tumor effect compared with Imiquimod cream (50 mg/g)” value (COLO-16 cells [5]) was “significantly superior to that of Imiquimod cream”. For the same compound, the Dissolution behavior ([6]; Ethanol concentration 20 %, sample concentration 8 mg/g) was “dissolved”, the Dissolution behavior ([6]; Ethanol concentration 20 %, sample concentration 8 mg/g, listed as 17β-Neriifolin) was “Dissolved” and the Dissolution behavior ([6]; Ethanol concentration 45 %, sample concentration 20 mg/g) was “dissolved”. For the same compound, the Dissolution behavior ([6]; Ethanol concentration 45 %, sample concentration 20 mg/g, listed as 17β-Neriifolin) was “Dissolved”, the Dissolution behavior ([6]; Ethanol concentration 50 %, sample concentration 24 mg/g) was “Dissolved” and the Dissolution behavior ([6]; Ethanol concentration 66 %, sample concentration 32 mg/g) was “Dissolved”. For the same compound, the Dissolution behavior ([6]; Ethanol concentration 75 %, sample concentration 40 mg/g) was “Dissolved”, the Dissolution behavior ([6]; Ethanol concentration 100 %, sample concentration 50 mg/g) was “Dissolved” and the “impact of high temperature, high humidity, and illumination on the related substances and drug content” value ([7]; combined with sodium carboxymethyl cellulose 1:5, 10 days) was “no impact”. For the same compound, the “stability of the combination with sodium carboxymethyl cellulose compared with the combination with Carbomer” value ([7]; mass ratio 1:5, 10 days, high temperature, high humidity, illumination) was “significantly superior”, the “Labeled amount (%)” value ([7]; 0 days) was 99.56% and the “Related substances (%) Impurity A” value ([7]; 0 days) was 0.17%. For the same compound, the “Related substances (%) Impurity B” value ([7]; 0 days) was 0.36%, the “Related substances (%) Impurity C” value ([7]; 0 days) was 0.25% and the “Related substances (%) Impurity D” value ([7]; 0 days) was 0.13%. The “Related substances (%) Impurity E” value ([7]; 0 days) was 0.15%, the “Related substances (%) Impurity F” value ([7]; 0 days) was 0.14% and the “Related substances (%) RRT0.73” value ([7]; 0 days) was 0.05%. For the same compound, the “Related substances (%) RRT1.10” value ([7]; 0 days) was 0.04%, the “Related substances (%) RRT2.18” value ([7]; 0 days) was 0.03% and the “Related substances (%) Total impurities” value ([7]; 0 days) was 1.32%. For the same compound, the “Labeled amount (%)” value [7, 10] was 99.42%, the “Related substances (%) Impurity A” value [7, 10] was 0.17% and the “Related substances (%) Impurity B” value [7, 10] was 0.36%. The “Related substances (%) Impurity C” value [7, 10] was 0.25%, the “Related substances (%) Impurity D” value [7, 10] was 0.13% and the “Related substances (%) Impurity E” value [7, 10] was 0.15%. The “Related substances (%) Impurity F” value [7, 10] was 0.14%, the “Related substances (%) RRT0.73” value [7, 10] was 0.05% and the “Related substances (%) RRT1.10” value [7, 10] was 0.04%. For the same compound, the “Related substances (%) RRT2.18” value [7, 10] was 0.03%, the “Related substances (%) Total impurities” value [7, 10] was 1.32% and the “Labeled amount (%)” value [7, 11] was 100.95%. The “Related substances (%) Impurity A” value [7, 11] was 0.17%, the “Related substances (%) Impurity B” value [7, 11] was 0.36% and the “Related substances (%) Impurity C” value [7, 11] was 0.25%. The “Related substances (%) Impurity D” value [7, 11] was 0.13%, the “Related substances (%) Impurity E” value [7, 11] was 0.15% and the “Related substances (%) Impurity F” value [7, 11] was 0.14%. The “Related substances (%) RRT0.73” value [7, 11] was 0.05%, the “Related substances (%) RRT1.10” value [7, 11] was 0.04% and the “Related substances (%) RRT2.18” value [7, 11] was 0.03%. The “Related substances (%) Total impurities” value [7, 11] was 1.32%, the “Labeled amount (%)” value ([7]; Strong light for 10 days) was 99.96% and the “Related substances (%) Impurity A” value ([7]; Strong light for 10 days) was 0.17%. For the same compound, the “Related substances (%) Impurity B” value ([7]; Strong light for 10 days) was 0.36%, the “Related substances (%) Impurity C” value ([7]; Strong light for 10 days) was 0.25% and the “Related substances (%) Impurity D” value ([7]; Strong light for 10 days) was 0.13%. For the same compound, the “Related substances (%) Impurity E” value ([7]; Strong light for 10 days) was 0.15%, the “Related substances (%) Impurity F” value ([7]; Strong light for 10 days) was 0.14% and the “Related substances (%) RRT0.73” value ([7]; Strong light for 10 days) was 0.05%. The “Related substances (%) RRT1.10” value ([7]; Strong light for 10 days) was 0.04%, the “Related substances (%) RRT2.18” value ([7]; Strong light for 10 days) was 0.03% and the “Related substances (%) Total impurities” value ([7]; Strong light for 10 days) was 1.32%. For the same compound, the “plasma drug concentrations above the LLOQ” value ([8]; four Australian subjects) was 0.021 to 0.101 ng/mL, the “plasma drug concentrations above the LLOQ” value ([8]; seven Chinese subjects) was 0.022 to 0.106 ng/mL and the “dose dependence of systemic exposure” value ([8]; 0.008-0.06 mg/cm^2 dose range) was “No dose-dependent increase”. For the same compound, the “cell cycle arrest and apoptosis” value [9] was “induce cell cycle arrest and apoptosis”.

— EP4792818A1, “COMPOUND SUITABLE FOR EXTERNAL USE, AND PHARMACEUTICAL COMPOSITION” (EnKang Pharmaceuticals (Guangzhou), Ltd., priority 2023, dated 2025)
